# Patent US4694069A, “Kibdelosporangium aridum SK&F-AAD-609” (SmithKline Beckman Corporation, priority 1985, dated 1987)
# Where two headings read alike, the source gives them in different places.
# Legend:
# Clostridium difficile = assay: In vitro MIC, standard microtiter assay; assay type: cell-based; conditions: Clostridioides difficile; Table A; read-out: MIC
# Text: (§1) In vitro minimum inhibitory concentrations (MIC) of the AAD-609 complex and of Factors A, B, CC2 and D, using standard microtiter assay procedures, against a number of microorganisms are reported in Table A, which follows.
# Escherichia coli 12140 = assay: In vitro MIC, standard microtiter assay; assay type: cell-based; conditions: Escherichia coli, 12140; Table A; read-out: MIC
# Text: as §1
# S. epidermidis 2265 = assay: In vitro MIC, standard microtiter assay; assay type: cell-based; conditions: Staphylococcus epidermidis, 2265; Table A; read-out: MIC
# Text: as §1
# S. epidermidis 2479 = assay: In vitro MIC, standard microtiter assay; assay type: cell-based
# Text: as §1
# S. epidermidis 2683 = assay: In vitro MIC, standard microtiter assay; assay type: cell-based; conditions: Staphylococcus epidermidis, 2683; Table A; read-out: MIC
# Text: as §1
# [1] = system: S. epidermidis 651 (methicillin resistant strain); assay: In vitro MIC, standard microtiter assay; assay type: cell-based; conditions: methicillin resistant strain
# Text: as §1
# [2] = system: Salmonella gallinarum BC-595; assay: In vitro MIC, standard microtiter assay; assay type: cell-based; conditions: Salmonella enterica, GALLINARUM; Table A; read-out: MIC
# Text: as §1
# [3] = system: Staphylococcus aureus HH127; assay: In vitro MIC, standard microtiter assay; assay type: cell-based
# Text: as §1
# [4] = system: Streptococcus faecalis 657; assay: In vitro MIC, standard microtiter assay; assay type: cell-based; conditions: Enterococcus faecalis, 657; Table A; read-out: MIC
# Text: as §1
# S. aureus 209P = assay: In vitro MIC, standard microtiter assay; assay type: cell-based, Staphylococcus aureus; conditions: Staphylococcus aureus, 209P; Table A; read-out: MIC
# Text: as §1
# S. aureus 674 = assay: In vitro MIC, standard microtiter assay; assay type: cell-based, Staphylococcus aureus; conditions: Staphylococcus aureus, 674; Table A; read-out: MIC
# Text: as §1
# S. aureus 675 = assay: In vitro MIC, standard microtiter assay; assay type: cell-based, Staphylococcus aureus; conditions: Staphylococcus aureus, 675; Table A; read-out: MIC
# Text: as §1
# [5] = system: S. aureus 910 (methicillin resistant strain); assay: In vitro MIC, standard microtiter assay; assay type: cell-based, Staphylococcus aureus; conditions: Staphylococcus aureus; Table A; methicillin resistant strain; read-out: MIC
# Text: as §1
# S. faecalis 34358 = assay: In vitro MIC, standard microtiter assay; assay type: cell-based, Streptococcus faecalis
# Text: as §1
# [6] = system: S. aureus 2620 (methicillin resistant strain); assay: MIC; assay type: cell-based; conditions: Staphylococcus aureus; Table B; methicillin resistant strain; read-out: MIC
# Text: as §1
# [7] = 30:70 acetonitrile:water
# SK&F-AAD-609 = assay: Susceptibility of SK&F-AAD-609 to antibiotics (diffusion method, BBL susceptibility disks); assay type: cell-based, Kibdelosporangium aridum subsp. largum; conditions: 28° C., one week
# Protocol: Susceptibility of SK&F-AAD-609 to antibiotics was examined by placing BBL susceptibility disks on nutrient agar plates seeded with SK&F-ADD-609 as an agar overlay. Plates were placed at 4° C. for one hour to permit diffusion of the anitbiotics and, subsequently, incubated at 28° C. Diameters of the zones of inhibition were measured after incubation for one week.
# Susceptibility to Antibiotics. […] Chlortetracycline (5 μg) produced 17-18 mm zones of inhibition; tetracycline (5 μg) 9-12 mm zones; rifampin (5 μg) 10-12 mm zones; novobiocin (5 μg) 30-35 mm zones. All zones of inhibition contained at least a few resistant colonies.
# [8] = system: mixed intestinal microflora (cecum fluid); assay: Swine in vitro model; conditions: one level, up to 166.67 ppm; 4-5 h
# Protocol: A swine in vitro model was used to characterize AAD-609 antibiotics as potential feed additives in swine and poultry. Mixed intestinal microflora were obtained from ileally-cannulated pigs. Virginiamycin, carbadox, AAD-216 and its components, and AAD-609 Complex (containing less than 5% AAD-216 antibiotics) were tested at one level. […] Glucose (GLU) was spared from microbial degradation. Volatile fatty acids (TOTAL) were the major end-product of microbial metabolism while lactic acid production were reduced. […] Since AAD-609 and AAD-216 give similar in vitro results, it is expected that AAD-609 has similar growth-promoting activity in monogastric animals. Also, the in vitro activity of AAD-609 is similar to the activity previously observed with bacitracin in this model.
# The swine in vitro model was carried out by incubating 1.5 ml of cecum fluid, from a swine fed normal rations, mixed with 1.5 ml of a nutrient broth (3 mg casein hydrolysate, 30 mg maltose, 1.25 mg urea, 0.5 mg lysine, and 30 mg cellobiose) and with up to 166.67 parts per million of a selected growth promotant at 39° C., with oscillation, for about 4-5 hours. Results, percentage of control, are reported in the following table in which all abbreviations are as above except that LLA means L-lactate and ETOH means ethanol.
# [9] = system: Hubbard cross day-old chicks; assay: Growth of chicks; assay type: in vivo; conditions: 8 reps
# Protocol: The effects of virginiamycin, AAD-609 Complex (containing less than 5% AAD-216 antibiotics) and AAD-216 Complex on growth of chicks were evaluated as follows. Hubbard cross day-old chicks were housed in wire-floored poultry caging. Eight chicks were included in each pen/rep. Weights and feed intakes were recorded on days 10 and 17. Results showing animal weight as a percentage of a control fed a normal rye-based ration and animal feed intake per unit weight gain as a percentage of animal feed intake (g) per unit weight gain (g) of the controls are reported in the following table.
molecule,measurement,setting,value
CNC1C(=O)NC2C(=O)NC(C(=O)NC3C(=O)NC4C(=O)NC(C(=O)NC(C(=O)O)c5cc(O)cc(OC6OC(CO)C(O)C(O)C6O)c5-c5cc4ccc5O)C(O)c4cc(Cl)c(c(Cl)c4)Oc4cc3cc(c4OC3OC(CO)C(O)C(O)C3NC(=O)CCCCCCCC(C)C)Oc3ccc(cc3Cl)C2O)c2cc(cc(O)c2Cl)Oc2cc1ccc2O (stereo not drawn) [AAD-609 B],MIC,Clostridium difficile,0.5 µg/mL
same,MIC,Escherichia coli 12140,> 100 µg/mL
same,MIC,S. epidermidis 2265,25 µg/mL
same,MIC,"S. epidermidis 2479; Staphylococcus epidermidis, 2479, Table A, read-out: MIC",12.5 µg/mL
same,MIC,S. epidermidis 2479; Table B,12.5 µg/mL
same,MIC,S. epidermidis 2683,25 µg/mL
same,MIC,"[1]; Staphylococcus epidermidis, Table A, read-out: MIC",50 µg/mL
same,MIC,[1]; Table B,50 µg/mL
same,MIC,[2],> 100 µg/mL
same,MIC,"[3]; Staphylococcus aureus, HH127, Table A, read-out: MIC",1.6 µg/mL
same,MIC,[3]; Table B,1.6 µg/mL
same,MIC,[4],0.2 µg/mL
same,MIC,S. aureus 209P,0.8 µg/mL
same,MIC,S. aureus 674,0.8 µg/mL
same,MIC,S. aureus 675,6.3 µg/mL
same,MIC,[5],1.6 µg/mL
same,MIC,"S. faecalis 34358; Enterococcus faecalis, 34358, Table A, read-out: MIC",0.2 µg/mL
same,MIC,S. faecalis 34358; Table B,0.2 µg/mL
same,MIC,[6],2 µg/mL
same,pKa (A) carboxyl on aglycone,[7],3.5
same,pKa (C) amino group on aglycone,[7],7.1
CN(C)[C@@H]1C(O)=C(C(N)=O)C(=O)[C@@]2(O)C(O)=C3C(=O)c4c(O)ccc(Cl)c4[C@@](C)(O)[C@H]3C[C@@H]12 [Chlortetracycline],Zone of inhibition (diameter),SK&F-AAD-609; disk 5 μg,17-18 mm
CC1(C)S[C@@H]2[C@H](NC(=O)[C@H](N)c3ccccc3)C(=O)N2[C@H]1C(=O)O [ampicillin],Susceptibility (diffusion method),SK&F-AAD-609; disk 10 μg,resistant
CC(=O)OCC1=C(C(=O)O)N2C(=O)[C@@H](NC(=O)Cc3cccs3)[C@H]2SC1 [cephalothin],Susceptibility (diffusion method),SK&F-AAD-609; disk 30 μg,resistant
O=C(N[C@H](CO)[C@H](O)c1ccc([N+](=O)[O-])cc1)C(Cl)Cl [chloramphenicol],Susceptibility (diffusion method),SK&F-AAD-609; disk 5 μg,resistant
CCC[C@@H]1C[C@@H](C(=O)N[C@@H]([C@H]2O[C@H](SC)[C@H](O)[C@@H](O)[C@H]2O)[C@@H](C)O)N(C)C1 [lincomycin],Susceptibility (diffusion method),SK&F-AAD-609; disk 2 μg,resistant
CO[C@@H]1[C@@H](OC(N)=O)[C@@H](O)[C@H](Oc2ccc3c(O)c(NC(=O)c4ccc(O)c(CC=C(C)C)c4)c(=O)oc3c2C)OC1(C)C [novobiocin],Zone of inhibition (diameter),SK&F-AAD-609; disk 5 μg,30-35 mm
CC1(C)S[C@@H]2[C@H](NC(=O)Cc3ccccc3)C(=O)N2[C@H]1C(=O)O [penicillin],Susceptibility (diffusion method),SK&F-AAD-609; disk 10 units,resistant
CO[C@H]1/C=C/O[C@@]2(C)Oc3c(C)c(O)c4c(O)c(c(/C=N/N5CCN(C)CC5)c(O)c4c3C2=O)NC(=O)/C(C)=C\C=C\[C@H](C)[C@H](O)[C@@H](C)[C@@H](O)[C@@H](C)[C@H](OC(C)=O)[C@@H]1C [rifampin],Zone of inhibition (diameter),SK&F-AAD-609; disk 5 μg,10-12 mm
[H]/N=C(/N)N[C@H]1[C@H](O)[C@@H](O)[C@H](O[C@@H]2O[C@@H](C)[C@](O)(C=O)[C@H]2O[C@@H]2O[C@@H](CO)[C@H](O)[C@@H](O)[C@@H]2NC)[C@@H](N/C(N)=N\[H])[C@@H]1O [streptomycin],Susceptibility (diffusion method),SK&F-AAD-609; disk 10 μg,resistant
CN(C)[C@@H]1C(=O)C(C(N)=O)=C(O)[C@@]2(O)C(=O)C3=C(O)c4c(O)cccc4[C@@](C)(O)[C@H]3C[C@@H]12 [tetracycline],Zone of inhibition (diameter),SK&F-AAD-609; disk 5 μg,9-12 mm
NC[C@H]1O[C@H](O[C@H]2[C@H](O)[C@@H](O[C@H]3O[C@H](CO)[C@@H](O)[C@H](N)[C@H]3O)[C@H](N)C[C@@H]2N)[C@H](N)C[C@@H]1O [tobramycin],Susceptibility (diffusion method),SK&F-AAD-609; disk 10 μg,resistant
gentamicin,Susceptibility (diffusion method),SK&F-AAD-609; disk 10 μg,resistant
virginiamycin,% PR (percent propionate),[8],69 % of control
same,ACE (acetate),[8],53 % of control
same,BUT (butyrate),[8],153 % of control
same,ETOH (ethanol),[8],25 % of control
same,GLU (glucose),[8],180 % of control
same,IBU (isobutyrate),[8],0 % of control
same,IVA (isovalerate),[8],0 % of control
same,LLA (L-lactate),[8],4 % of control
same,LYS (lysine),[8],94 % of control
same,PRO (propionate),[8],44 % of control
same,TOTAL (total volatile fatty acids),[8],63 % of control
same,VAL,[8],0 % of control
same,"Feed/gain, days 3-10",[9]; 10.0 ppm in feed,99.8 % of control
same,"Feed/gain, days 3-17",[9]; 10.0 ppm in feed,97.5 % of control
same,"Feed/gain, days 10-17",[9]; 10.0 ppm in feed,96.6 % of control
same,Mortality,[9]; 10.0 ppm in feed,4
same,"Weight, day 10",[9]; 10.0 ppm in feed,100.3 % of control
same,"Weight, day 17",[9]; 10.0 ppm in feed,101.8 % of control
same,"Feed/gain, days 3-10",[9]; 50.0 ppm in feed,92.8 % of control
same,"Feed/gain, days 3-17",[9]; 50.0 ppm in feed,83.2 % of control
same,"Feed/gain, days 10-17",[9]; 50.0 ppm in feed,74.3 % of control
same,Mortality,[9]; 50.0 ppm in feed,2
same,"Weight, day 10",[9]; 50.0 ppm in feed,101.5 % of control
same,"Weight, day 17",[9]; 50.0 ppm in feed,120.2 % of control
